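All cell lines were grown in 96-well plates and treated with compound for 48 hours. GI50 marks 50% less growth.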 Active and inactive are the calls of the source. Rule as the data show it: active = GI50 up to about 1.1 µM and inactive = higher.
How the values were obtained:
Experiment in all cases: NCI-60 cell line screen, 48 h
HOP-62 = tested on: HOP-62
MDA-N = tested on: MDA-N
OVCAR-4 = tested on: OVCAR-4
MOLT-4 = tested on: MOLT-4
SF-295 = tested on: SF-295
RPMI-8226 = tested on: RPMI-8226
NCI/ADR-RES = tested on: NCI/ADR-RES
OVCAR-3 = tested on: OVCAR-3
CCRF-CEM = tested on: CCRF-CEM
CAKI-1 = tested on: CAKI-1
OVCAR-8 = tested on: OVCAR-8
K562 = tested on: K562
SF-268 = tested on: SF-268
HCT-116 = tested on: HCT-116
LOX IMVI = tested on: LOX IMVI
SK-MEL-2 = tested on: SK-MEL-2
ACHN = tested on: ACHN
T47D = tested on: T47D
HT-29 = tested on: HT-29
NCI-H23 = tested on: NCI-H23

Measured: GI50

CCCNc1ncnc2[nH]ncc12
inactive: HOP-62 > 100 µM | MDA-N > 100 µM | OVCAR-4 > 100 µM | MOLT-4 > 100 µM | SF-295 > 100 µM | RPMI-8226 > 100 µM | NCI/ADR-RES > 100 µM | OVCAR-3 > 100 µM | CCRF-CEM > 100 µM | CAKI-1 > 100 µM | OVCAR-8 > 100 µM | K562 > 100 µM | SF-268 > 100 µM | HCT-116 > 100 µM | LOX IMVI > 100 µM | SK-MEL-2 > 100 µM | ACHN > 100 µM | T47D > 100 µM | HT-29 > 100 µM | NCI-H23 > 100 µM

O=C(CCCN1CCC2(CC1)CC(=O)N(N1CCCCCC1)C2=O)c1ccc(F)cc1
inactive: HOP-62 35.1 µM | MDA-N > 100 µM | OVCAR-4 40.6 µM | MOLT-4 36.1 µM | SF-295 27.6 µM | RPMI-8226 58.5 µM | NCI/ADR-RES 18.2 µM | OVCAR-3 > 100 µM | CCRF-CEM 5.7 µM | CAKI-1 81.5 µM | OVCAR-8 18.5 µM | K562 32.4 µM | SF-268 > 100 µM | HCT-116 55 µM | LOX IMVI 33.1 µM | SK-MEL-2 > 100 µM | ACHN > 100 µM | T47D 77.1 µM | HT-29 16.4 µM | NCI-H23 54.2 µM

From ChEMBL document CHEMBL1201862, “PubChem BioAssay data set” (2004)
